Several values for one entry are separate records, joined by “and”; a condition that tells them apart may be missing. Equal values may be shown once. Toxic doses and inconclusive results are not listed. No stated cut-off is given here; in the data, active means T/C of 150% or more; inactive means T/C below 125%.
Tested on: L1210 leukemia ip in BDF1 mice, survival T/C
Experiment: NCI In Vivo Anticancer Drug Screen. Data for tumor model L1210 Leukemia (intraperitoneal) in B6D2F1 (BDF1) mice
Conditions: endpoint: mean survival time, higher = longer survival
Method in brief: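 Value reflects the ratio of survival in compound-treated mice to survival in vehicle-treated controls, with both groups carrying the same transplanted tumor.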

[1] = dose: 400.0 mg/kg/injection, schedule: Q04DX003 (ip), vehicle: Klucel (hydroxypropylcellulose) (HPC)
[2] = dose: 100.0 mg/kg/injection, schedule: Q04DX003 (ip), vehicle: Klucel (hydroxypropylcellulose) (HPC)
[3] = dose: 100.0 mg/kg/injection, schedule: Q04DX003 (ip), vehicle: other
[4] = dose: 200.0 mg/kg/injection, schedule: Q04DX003 (ip), vehicle: Klucel (hydroxypropylcellulose) (HPC)
[5] = dose: 200.0 mg/kg/injection, schedule: Q04DX003 (ip), vehicle: other
[6] = dose: 400.0 mg/kg/injection, schedule: Q04DX003 (ip), vehicle: other
[7] = dose: 100.0 mg/kg/injection, schedule: Q01DX001 (ip), vehicle: saline
[8] = dose: 200.0 mg/kg/injection, schedule: Q01DX001 (ip), vehicle: saline
[9] = dose: 100.0 mg/kg/injection, schedule: Q04DX002 (ip), vehicle: saline
[10] = dose: 50.0 mg/kg/injection, schedule: Q01DX001 (ip), vehicle: carboxymethylcellulose (CMC)
[11] = dose: 100.0 mg/kg/injection, schedule: Q01DX001 (ip), vehicle: carboxymethylcellulose (CMC)
[12] = dose: 50.0 mg/kg/injection, schedule: Q04DX002 (ip), vehicle: Klucel (hydroxypropylcellulose) (HPC)
[13] = dose: 100.0 mg/kg/injection, schedule: Q04DX002 (ip), vehicle: Klucel (hydroxypropylcellulose) (HPC)
[14] = dose: 200.0 mg/kg/injection, schedule: Q01DX001 (ip), vehicle: carboxymethylcellulose (CMC)
[15] = dose: 400.0 mg/kg/injection, schedule: Q01DX001 (ip), vehicle: carboxymethylcellulose (CMC)

Measured: T/C

COc1nc(Br)ccc1/C=N\NC(N)=S
inactive: dose: 10.0 mg/kg/injection, schedule: Q04DX003 (ip), vehicle: Klucel (hydroxypropylcellulose) (HPC) 101 % of control | dose: 20.0 mg/kg/injection, schedule: Q04DX003 (ip), vehicle: Klucel (hydroxypropylcellulose) (HPC) 95 % of control | [1] 98 % of control

CC(C)CC(=O)Nc1ccccc1
inactive: [2] 105 % of control | [3] 98 % of control | [4] 101 % of control | [5] 98 % of control | [1] 89 % of control | [6] 89 % of control

Cc1ccc(S(=O)(=O)OCC2CC3CCC2C3)cc1 (stereo not given)
inactive: [3] 91 % of control | [5] 94 % of control | [6] 98 % of control

Nc1cccc(OCCOc2ccc([N+](=O)[O-])cc2)c1
inactive: [7] 102 % of control | [8] 104 % of control | dose: 400.0 mg/kg/injection, schedule: Q01DX001 (ip), vehicle: saline 100 % of control

Cc1cc(C(=O)O)c(C(=O)O)c(Cl)n1
inactive: dose: 75.0 mg/kg/injection, schedule: Q01DX001 (ip), vehicle: other 90 % of control | dose: 150.0 mg/kg/injection, schedule: Q01DX001 (ip), vehicle: other 95 % of control | dose: 300.0 mg/kg/injection, schedule: Q01DX001 (ip), vehicle: other 91 % of control

CCCCC#CC(=O)OCC
inactive: [9] 97 % of control | dose: 200.0 mg/kg/injection, schedule: Q04DX002 (ip), vehicle: saline 97 % of control | dose: 400.0 mg/kg/injection, schedule: Q04DX002 (ip), vehicle: saline 112 % of control

CC(=O)NC1C(Nc2ccc(S(=O)(=O)Nc3nccc(C)n3)cc2)OC(CO)C(O)C1O (stereo not given)
inactive: dose: 250.0 mg/kg/injection, schedule: Q01DX Z (ip), vehicle: methylcellulose (MC) 94 % of control | dose: 375.0 mg/kg/injection, schedule: Q01DX Z (ip), vehicle: methylcellulose (MC) 93 % of control | dose: 500.0 mg/kg/injection, schedule: Q01DX Z (ip), vehicle: methylcellulose (MC) 102 % of control

CCSCN1CCN(CSCC)CC1
inactive: [7] 98 % of control | [8] 104 % of control

NC(CCl)=NC1CC1
inactive: dose: 25.0 mg/kg/injection, schedule: Q04DX002 (ip), vehicle: saline 106 % of control | dose: 50.0 mg/kg/injection, schedule: Q04DX002 (ip), vehicle: saline 106 % of control | [9] 110 % of control

Nc1ncnc2cc(O)[nH]c12
inactive: [10] 107 % of control | [11] 104 % of control

Nc1nc(N)c(-c2ccc(Cl)cc2)c(CNc2ccc(/C=C/C3(CCl)OCCO3)cc2)n1
inactive: dose: 100.0 mg/kg/injection, schedule: Q01DX001 (ip), vehicle: saline with Tween-80 92 % of control | dose: 200.0 mg/kg/injection, schedule: Q01DX001 (ip), vehicle: saline with Tween-80 100 % of control | dose: 400.0 mg/kg/injection, schedule: Q01DX001 (ip), vehicle: saline with Tween-80 96 % of control

O=C(O)c1ccc(CBr)cc1CBr
inactive: dose: 6.25 mg/kg/injection, schedule: Q01DX009 (ip), vehicle: saline with Tween-80 103 % of control | dose: 6.25 mg/kg/injection, schedule: Q04DX003 (ip), vehicle: saline with Tween-80 93 % of control | dose: 12.5 mg/kg/injection, schedule: Q01DX009 (ip), vehicle: saline with Tween-80 101 % of control | dose: 12.5 mg/kg/injection, schedule: Q04DX003 (ip), vehicle: saline with Tween-80 96 % of control | dose: 25.0 mg/kg/injection, schedule: Q01DX009 (ip), vehicle: saline with Tween-80 94 % of control | dose: 25.0 mg/kg/injection, schedule: Q04DX003 (ip), vehicle: saline with Tween-80 102 % of control

O=C(Nc1ccc(Cl)cc1)c1cc([N+](=O)[O-])ccc1O
inactive: dose: 30.5 mg/kg/injection, schedule: Q02DX010 (ip), vehicle: carboxymethylcellulose (CMC) 95 % of control | dose: 61.0 mg/kg/injection, schedule: Q02DX010 (ip), vehicle: carboxymethylcellulose (CMC) 101 % of control | dose: 122.0 mg/kg/injection, schedule: Q02DX010 (ip), vehicle: carboxymethylcellulose (CMC) 99 % of control | dose: 244.0 mg/kg/injection, schedule: Q02DX010 (ip), vehicle: carboxymethylcellulose (CMC) 94 % of control

CCC(C)C(CCN1CCCC1)(CNC(=O)CN(CC)CC)c1cccc2ccccc12 (stereo not given)
inactive: dose: 100.0 mg/kg/injection, schedule: Q01DX009 (ip), vehicle: saline 95 % of control

CCCCCCCCCCCCCCCCCCOc1ccccn1
inactive: dose: 100.0 mg/kg/injection, schedule: Q01DX009 (ip), vehicle: Klucel (hydroxypropylcellulose) (HPC) 97 % of control | [2] 98 % of control | dose: 200.0 mg/kg/injection, schedule: Q01DX009 (ip), vehicle: Klucel (hydroxypropylcellulose) (HPC) 96 % of control | [4] 93 % of control | dose: 400.0 mg/kg/injection, schedule: Q01DX009 (ip), vehicle: Klucel (hydroxypropylcellulose) (HPC) 91 % of control | [1] 92 % of control

Nc1nc(Br)c(Br)nc1C(=O)O
inactive: dose: 12.5 mg/kg/injection, schedule: Q01DX009 (ip), vehicle: Klucel (hydroxypropylcellulose) (HPC) 101 % of control and 103 % of control | dose: 25.0 mg/kg/injection, schedule: Q01DX009 (ip), vehicle: Klucel (hydroxypropylcellulose) (HPC) 97 % of control | dose: 50.0 mg/kg/injection, schedule: Q01DX001 (ip), vehicle: Klucel (hydroxypropylcellulose) (HPC) 101 % of control | dose: 50.0 mg/kg/injection, schedule: Q01DX009 (ip), vehicle: Klucel (hydroxypropylcellulose) (HPC) 95 % of control and 91 % of control | [12] 104 % of control | dose: 50.0 mg/kg/injection, schedule: Q04DX003 (ip), vehicle: Klucel (hydroxypropylcellulose) (HPC) 103 % of control | dose: 100.0 mg/kg/injection, schedule: Q01DX001 (ip), vehicle: Klucel (hydroxypropylcellulose) (HPC) 102 % of control | [13] 100 % of control | [2] 106 % of control | dose: 200.0 mg/kg/injection, schedule: Q01DX001 (ip), vehicle: Klucel (hydroxypropylcellulose) (HPC) 96 % of control

COc1ccc(OC)c(-n2cccc2C#N)c1
inactive: [13] 104 % of control | dose: 200.0 mg/kg/injection, schedule: Q04DX002 (ip), vehicle: Klucel (hydroxypropylcellulose) (HPC) 97 % of control | dose: 400.0 mg/kg/injection, schedule: Q04DX002 (ip), vehicle: Klucel (hydroxypropylcellulose) (HPC) 104 % of control

O=c1[nH]c(=O)c2cc3ccccc3nc2[nH]1
inactive: [10] 97 % of control | [11] 101 % of control | [14] 95 % of control | [15] 97 % of control

CN(C)c1ccc(/C=N/NC(=O)CNC(=O)c2ccc(Cl)cc2Cl)cc1
inactive: dose: 50.0 mg/kg/injection, schedule: Q01DX009 (ip), vehicle: saline with Tween-80 86 % of control | dose: 100.0 mg/kg/injection, schedule: Q01DX009 (ip), vehicle: saline with Tween-80 88 % of control

CC(C)N(CCNc1nc(C(Cl)(Cl)Cl)nc2cc(Cl)ccc12)C(C)C
inactive: dose: 100.0 mg/kg/injection, schedule: Q04DX003 (ip), vehicle: saline with Tween-80 93 % of control | dose: 200.0 mg/kg/injection, schedule: Q04DX003 (ip), vehicle: saline with Tween-80 94 % of control

OCC1OC(n2cc(Br)c3c(Cl)ncnc32)C(O)C1O (stereo not given)
inactive: [10] 117 % of control | [11] 87 % of control | [14] 93 % of control | [15] 112 % of control

CC(C)C(=O)[O][Pb]([c]1ccccc1)([c]1ccccc1)[c]1ccccc1
inactive: dose: 12.5 mg/kg/injection, schedule: Q04DX002 (ip), vehicle: Klucel (hydroxypropylcellulose) (HPC) 101 % of control | dose: 25.0 mg/kg/injection, schedule: Q04DX002 (ip), vehicle: Klucel (hydroxypropylcellulose) (HPC) 97 % of control | [12] 97 % of control

[Cl][Sb]([c]1ccccc1)([c]1ccccc1)([c]1ccccc1)[c]1ccccc1
inactive: dose: 2.4 mg/kg/injection, schedule: Q01DX009 (ip), vehicle: saline 101 % of control | dose: 4.7 mg/kg/injection, schedule: Q01DX009 (ip), vehicle: saline 94 % of control | dose: 9.4 mg/kg/injection, schedule: Q01DX009 (ip), vehicle: saline 91 % of control

CN(C)CCCn1c2nc(=O)[nH]c(=O)c-2nc2cc(Cl)c(Cl)cc21
inactive: dose: 4.0 mg/kg/injection, schedule: Q01DX Z (ip), vehicle: methylcellulose (MC) 117 % of control

CCn1c(N)c(N=O)c(=O)[nH]c1=O
inactive: dose: 100.0 mg/kg/injection, schedule: Q01DX009 (ip), vehicle: gum acacia 95 % of control | dose: 200.0 mg/kg/injection, schedule: Q01DX009 (ip), vehicle: gum acacia 99 % of control

— PubChem BioAssay AID248 (DTP/NCI, 2004)
